Results from US5817690A, “4-aminoethoxy indolone derivatives” (American Home Products Corporation, priority 1997, dated 1998).

Target: T1, dopamine D-2 receptor (D2 Spiper) (Rattus norvegicus, UniProt P61169)
T1 construct: homogenized limbic brain tissue is incubated with; from tissue; host or cells: limbic brain tissue homogenate
Assay: 3H-spiroperidol (Spiper.) binding in homogenized limbic brain tissue, affinity for the dopamine D-2 receptor

T1 sequence (P61169 whole entry): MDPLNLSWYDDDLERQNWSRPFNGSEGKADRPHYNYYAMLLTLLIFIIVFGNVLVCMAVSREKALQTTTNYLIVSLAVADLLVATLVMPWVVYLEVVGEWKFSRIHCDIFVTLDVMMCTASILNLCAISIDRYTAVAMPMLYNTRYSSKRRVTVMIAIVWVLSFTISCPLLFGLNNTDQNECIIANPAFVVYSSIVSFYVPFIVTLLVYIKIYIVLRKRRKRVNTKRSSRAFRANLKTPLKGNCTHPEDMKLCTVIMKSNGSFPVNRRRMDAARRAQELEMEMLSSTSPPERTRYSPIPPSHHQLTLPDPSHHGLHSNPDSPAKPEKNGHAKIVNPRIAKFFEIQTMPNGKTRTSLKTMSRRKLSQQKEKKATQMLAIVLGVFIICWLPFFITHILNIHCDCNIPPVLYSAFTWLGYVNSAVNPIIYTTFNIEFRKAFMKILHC

Compound	IC50
O=C1Cc2c(cccc2OCCNCc2ccccc2)N1 [Example 1, 4-(2-Benzylaminoethoxy)-1,3-dihydro-indol-2-one]	145 nM
CNCCOc1cccc2c1CC(=O)N2 [Example 2, 4-(2-Methylamino-ethoxy)-1,3-dihydro-indol-2-one]	918 nM
NCCOc1cccc2c1CC(=O)N2 [Example 3, 4-(2-Amino-ethoxy)-1,3-dihydro-indol-2-one]	3420 nM
O=C1Cc2c(OCCNCc3ccc(F)cc3)ccc(Cl)c2N1 [Example 4]	176 nM
CN(CCOc1ccc(Cl)c2c1CC(=O)N2)Cc1ccccc1 [Example 7, 4-[2-(N-Benzyl-N-methyl-amino)-ethoxy]-7-chloro-1,3dihydro-indol-2-one]	231 nM
CCCCNCCOc1ccc(Cl)c2c1CC(=O)N2 [Example 8, 4-(2-Butylamino-ethoxy)-7-chloro-1,3-dihydro-indol-2-one]	144 nM
CN(CCOc1cccc2c1CC(=O)N2)Cc1ccccc1 [Example 25, 4-[2-(Benzyl-methyl-amino)-ethoxy]-1,3-dihydro-indol-2-one]	645 nM
CN(CCCC(=O)c1ccc(F)cc1)CCOc1cccc2c1CC(=O)N2 [Example 27, 4-(2-{[4-(4-Fluoro-phenyl)-4-oxo-butyl]-methyl-amino}-ethoxy)-1,3-dihydro-indol-2-one]	346 nM

These reach a lower IC50. Values come first.

IC50	Compound
99.4 nM	O=C1Cc2c(OCCNCC3CCCCC3)ccc(F)c2N1 [Example 16, 4-[2-(Cyclohexylmethyl-amino)-ethoxy)-7-fluoro-1,3-dihydro-indol-2one]
81.4 nM	O=C1Cc2c(OCCN3CCc4ccccc4C3)ccc(Cl)c2N1 [Example 9, 7-Chloro-4-[2-(3,4-dihydro-1H-isoguinolin-2-yl)-ethoxy]-1,3-dihydro-indol-2-one]
68.7 nM	O=C1Cc2c(OCCNCc3ccccc3)ccc(F)c2N1 [Example 15, 4-(2-Benzylamino-ethoxy)-7-fluoro-1,3-dihydro-indol-2-one]
51.9 nM	O=C1Cc2c(OCCNCc3ccc(Cl)cc3)ccc(Cl)c2N1 [Example 5]
37.5 nM	Cc1ccc(CNCCOc2ccc(Cl)c3c2CC(=O)N3)cc1 [Example 6]
36 nM	O=C1Cc2c(OCCNCc3ccccc3)ccc(Cl)c2N1 [Example 14, 4-(2-Benzylamino-ethoxy)-7-chloro-1,3-dihydro-indol-2-one]
25 nM	O=C1Cc2c(cccc2OCCNCCCCc2ccccc2)N1 [Example 13]
